PubChem BioAssay (NCI)
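Assay format: 96-well plates, 48-hour exposure. The concentration for 50% growth inhibition is given as GI50. The concentration for full growth arrest is given as TGI.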

Tests used:
Test in all cases: NCI-60 cell line screen, 48 h
[1] = tested on: 786-0 renal
[2] = tested on: DU-145 prostate
[3] = tested on: HCT-116 colon
[4] = tested on: HL-60(TB) leukemia
[5] = tested on: HT29 colon
[6] = tested on: OVCAR-4 ovarian
[7] = tested on: RXF 393 renal
[8] = tested on: SK-MEL-28 melanoma
[9] = tested on: SK-OV-3 ovarian
[10] = tested on: SR leukemia

| SMILES | GI50 [1] [µM] | TGI [1] [µM] | GI50 [2] [µM] | TGI [2] [µM] | GI50 [3] [µM] | TGI [3] [µM] | GI50 [4] [µM] | TGI [4] [µM] | GI50 [5] [µM] | TGI [5] [µM] | GI50 [6] [µM] | TGI [6] [µM] | GI50 [7] [µM] | TGI [7] [µM] | GI50 [8] [µM] | TGI [8] [µM] | GI50 [9] [µM] | TGI [9] [µM] | GI50 [10] [µM] | TGI [10] [µM] |
| --- | --- | --- | --- | --- | --- | --- | --- | --- | --- | --- | --- | --- | --- | --- | --- | --- | --- | --- | --- | --- |
| N/C(=N\N=C\c1ccc(-c2ccccc2)cc1)N[N+](=O)[O-] | 10.4 | > 100 | 5.76 | > 100 | 1.97 | > 100 | 1.9 | 7.58 | 3.59 | > 100 | 10.8 | > 100 | 2.78 | 80.2 | 25.3 | > 100 | 3.87 | > 100 | 0.692 | > 100 |
| O=C1C=C(Br)c2c(-c3ccccc3)oc3cccc1c23 |  | > 100 |  | > 100 |  | > 100 |  | > 63.2 |  | > 100 |  | > 100 |  | > 83.9 |  | > 100 |  | > 100 |  | > 30.8 |
| O=C(N/N=C/c1ccc2c(c1)CCC2)c1ccccc1O |  | 45 |  | > 100 |  | 43.7 |  | > 100 |  | > 100 |  | 60.2 |  | 62 |  | 68.2 |  | 30 |  | > 100 |
| COc1cccc(C=Nc2cc(C)ccn2)c1O.COc1cccc(C=Nc2cc(C)ccn2)c1O.[Cu] | 14.3 | 45.2 | 19.3 | 41.6 | 14.1 | 32.3 | 1.75 | 14.2 | 23.1 | 52.4 | 25.4 | > 100 | 11.9 | 34.8 | 21.7 | 48 | 13.6 | 28.1 | 18.6 | > 100 |
| C[C@]12CCC3[C@@H](CC[C@@H]4c5nonc5CC[C@]34C)C1CCC(=O)N2 (some centres undefined) |  | > 100 | > 100 | > 100 |  | > 100 |  | > 100 |  | > 100 |  | > 100 |  | > 100 |  | > 100 |  | > 100 | > 100 | > 100 |
| CN(C)c1ccc2c(c1)Sc1cc(N(C)C)ccc1N2C(=O)c1ccccc1 | 32.8 | > 100 | > 100 | > 100 | 25 | > 100 | 4.5 | > 100 |  |  | 44.6 | > 100 | 28.7 | > 100 | 43.1 | > 100 | 54.8 | > 100 | 14.6 | > 100 |
| Cc1ccc(-c2cc(-c3ccc(C)cc3)nc(NCCNc3ccnc4cc(Cl)ccc34)n2)cc1 | 1.79 | 3.67 | 1.81 | 3.31 | 1.6 | 3.44 | 2 | 4.15 | 1.74 | 3.37 | 1.63 | 3.24 |  |  | 1.76 | 3.38 | 1.75 | 3.34 | 0.623 | > 100 |
| O=C(/C(=C/c1ccc([N+](=O)[O-])cc1)c1ccccc1)c1ccccc1 | 3.56 | > 100 | 3.17 | > 100 |  |  | 2.29 | 5.71 | 3.33 | > 100 | 3.57 | > 100 | 2.78 | 6.78 | 2.27 | 5.63 | 4.19 | > 100 | 2.79 | > 100 |
| CCCn1c(C)nc2c1C(=O)c1ccccc1C2=O | 56.8 | > 100 | 23.5 | > 100 | 23.7 | 65.9 | 9.61 | 45.8 | 25.8 | 71.6 | 25 | > 100 |  |  | > 100 | > 100 | 86.2 | > 100 | 15.1 | 79.4 |
| C=CCOC1OC(CO[Si](C)(C)C(C)(C)C)C(OCc2ccccc2)C(OCc2ccccc2)C1OCc1ccccc1 (centres undefined) |  | 22.3 |  | > 100 |  | 65.9 |  | > 100 |  | > 100 |  | > 100 |  |  |  | > 100 |  | > 100 |  | > 100 |
| C=CC(=O)N1CCN(c2ccc3cccc(NC(=O)c4cnc(C)cn4)c3n2)CC1 | 1.77 | > 100 | 2.45 | > 100 | 2.36 | 20.1 | 2.2 | 6.61 | 4.05 | > 100 | 2.66 | > 100 | 1.45 | 9.46 | 7.88 | 20.5 |  |  | 0.838 | 12.7 |
| C=C1CC[C@@H]2[C@](C)(COC(C)=O)[C@@H](O)CC[C@@]2(C)[C@@H]1COc1ccc2ccc(=O)oc2c1 | 31 | > 100 | > 100 | > 100 | > 100 | > 100 | > 100 | > 100 | > 100 | > 100 | > 100 | > 100 | 14.7 | 58.9 | > 100 | > 100 |  |  | 87.4 | > 100 |
